Reference: patent US12005045B2, “Method of modulating TIGIT and PD-1 signalling pathways using 1,2,4-oxadiazole compounds” (AURIGENE ONCOLOGY LIMITED, priority 2018, dated 2024)

Key:
mPVR = assay: Rescue of mouse CD8+ T-cell proliferation in the presence of recombinant mPVR (IL-2 ELISA readout); assay type: cell-based; conditions: mouse CD8+ T cells, anti-CD3 + mouse PVR, anti-TIGIT antibody = 100%; for Percent rescue of CD8+ T-cell proliferation at 100 nM mPVR based assay: 100 nM compound; for Percent rescue of CD8+ T-cell proliferation mPVR based assay: 1000 nM compound
Source text: 96-well plates, Corning; RPMI, Cat No. R6504, Sigma; Easy Sep magnet, Cat No. 18000, Stem Cell; Easy Sep Mouse CD8 T Cell isolation kit, Cat No. 19853, Stem Cell; Corning® cell strainer, (70 μm) Cat No. 431751, Corning; Purified anti-mouse CD3 Abs, Cat No. 100201, Biolegend; Recombinant mouse PVR, Cat No. 6909-CD-050, R&D Systems; Recombinant mouse anti-TIGIT Ab, Cat No. 142101, Biolegend; FBS, Cat No. SH30070.03, Hyclone; Mouse IL-2 ELISA Kit, R&D System Cat no DY402; Mouse IFN-γ ELISA Kit R&D Systems Cat no. DY485; Sterile PBS; FicollHistopaque, Cat No. 10831-6X100ML, Sigma
Spleen was collected from C57BL/6 male mice with 6-8 weeks of age. Splenocytes were isolated by slowly crushing the spleen between the sterile glass slides in RPMI+10% FBS and passing it through the 70 μm strainer. Cell suspension was centrifuged at 912×g for 10 minutes at room temperature and discarded the supernatant. Splenocytes were resuspended in RPMI+10% FBS (Complete RPMI). Resuspended splenocytes were overlaid on Ficoll Histopaque-1083 in a 50 ml Tarson tubes. Overlaid cells were centrifuged at 584×g for 30 minutes at room temperature without break. A clear buffy coat was carefully aspirated into sterile PBS. Isolated cells were washed using PBS and resuspended in complete RPMI medium to get a suspension of about 5×10^7 cells/ml. Mouse CD8^+ T cell were isolated by using EasySep Mouse CD8+ T Cell Isolation kit, as per manufacturers instruction.
96-well cell culture plate was coated with Purified anti-mouse CD3, 1 μg/mL (50 μL/well) and Recombinant Mouse PVR Fe Chimera, 0.5 μg/mL (50 ul/well) for 4 hours at 37° C. After 4 hours, the coated plate was washed with sterile PBS. Mouse CD8+ T cells isolated from spleen were added at 0.2 million/well ([…]) concentration into a 96-well cell culture plate. Test compound at various concentrations prepared in water or DMSO was added in respective wells (20 μL/well) so as to make the total volume 200 μL/well. The plates were incubated in 37° C. CO2 incubator for 3 days. On the 3rd day, cell supernatant was collected to determine cytokine levels (IL-2 or IFN-7) using ELISA. The extent of CD8+ T cell proliferation in presence or absence of test compound was measured by analysing the amount of IL-2 or IFN-7 in the culture supernatants using mouse IL-2 or IFN-7 ELISA kits as per manufacture instructions. Recombinant mouse anti-TIGIT antibody was used as positive control to determine the increased proliferation of CD8+ T cells.
Percent CD8+ T cell proliferation was analysed by measuring IL-2 levels using IL-2 ELISA kit and percent rescue of CD8+ T cell by test compound was estimated after deduction of % background proliferation value and normalising to % stimulated CD8+ T cell proliferation by anti-TIGIT antibody (positive control) as 100%.

PD-L1 = molecular target: T1, PD-L1 (Mus musculus, UniProt Q9EP73); assay: Rescue of mouse splenocyte proliferation in the presence of recombinant PD-L1 (CFSE proliferation assay); assay type: cell-based; conditions: 100 nM compound; anti-CD3/CD28 stimulated mouse splenocytes + PD-L1; stimulated splenocytes = 100%; read-out: Percent rescue of splenocyte proliferation at 100 nM PD-L1 based assay
T1 construct: Fc (Fc chimera); purchased R&D Systems 1019-B7-100
Experimental: Recombinant mouse PD-L1 (rm-PDL-1, cat no: 1019-B7-100; R&D Systems) were used as the source of PD-L1.
Mouse splenocytes harvested from 6-8 weeks old C57 BL6 mice; RPMI 1640 (GIBCO, Cat #11875); DMEM with high glucose (GIBCO, Cat #D6429); Fetal Bovine Serum [Hyclone, Cat #SH30071.03]; Penicillin (10000 unit/mL)-Streptomycin (10,000 μg/mL) Liquid (GIBCO, Cat #15140-122); MEM Sodium Pyruvate solution 100 mM (100×), Liquid (GIBCO, Cat #11360); Nonessential amino acid (GIBCO, Cat #11140); L-Glutamine (GIBCO, Cat #25030); Anti-CD3 antibody (eBiosciences—16-0032); Anti-CD28 antibody (eBiosciences—16-0281); ACK lysis buffer (1 mL) (GIBCO, Cat #-A10492); Histopaque (density-1.083 gm/mL) (SIGMA 10831); Trypan blue solution (SIGMA-T8154); 2 mL Norm Ject Luer Lock syringe-(Sigma 2014-12); 40 μm nylon cell strainer (BD FALCON 35230); Hemacytometer (Bright line-SIGMA Z359629); FACS Buffer (PBS/0.1% BSA): Phosphate Buffered Saline (PBS) pH 7.2 (HiMedia TS1006) with 0.1% Bovine Serum Albumin (BSA) (SIGMA A7050) and sodium azide (SIGMA 08591); 5 mM stock solution of CFSE: CFSE stock solution was prepared by diluting lyophilized CFSE with 180 μL of Dimethyl sulfoxide (DMSO C2H6SO, SIGMA-D-5879) and aliquoted in to tubes for further use. Working concentrations were titrated from 10 μM to 1 μM. (eBioscience-650850-85); 0.05% Trypsin and 0.02% EDTA (SIGMA 59417C); 96-well format ELISA plates (Corning CLS3390); BD FACS caliber (E6016); Recombinant mouse B7-H1/PDL1 Fc Chimera, (rm-PD-L1 cat no: 1019-B7-100).
Splenocytes harvested in a 50 mL falcon tube by mashing mouse spleen in a 40 μm cell strainer were further treated with 1 mL ACK lysis buffer for 5 min at room temperature. After washing with 9 mL of RPMI complete media, cells were re-suspended in 3 mL of 1×PBS in a 15 mL tube. 3 mL of Histopaque was added carefully to the bottom of the tube without disturbing overlaying splenocyte suspension. After centrifuging at 800×g for 20 min at room temperature, the opaque layer of splenocytes was collected carefully without disturbing/mixing the layers. Splenocytes were washed twice with cold 1×PBS followed by total cell counting using Trypan Blue exclusion method and used further for cell based assays.
Splenocytes were cultured in RPMI complete media (RPMI+10% fetal bovine serum+1 mM sodium pyruvate+10,000 units/mL penicillin and 10,000 μg/mL streptomycin) and maintained in a CO2 incubator with 5% CO2 at 37° C.
CFSE is a dye that passively diffuses into cells and binds to intracellular proteins. 1×10^6 cells/mL of harvested splenocytes were treated with 5 μM of CFSE in pre-warmed 1×PBS/0.1% BSA solution for 10 min at 37° C. Excess CFSE was quenched using 5 volumes of ice-cold culture media to the cells and incubated on ice for 5 min. CFSE labelled splenocytes were further given three washes with ice cold complete RPMI media. CFSE labelled 1×10^5 splenocytes added to wells containing either MDA-MB231 cells (1×10^5 cells cultured in high glucose DMEM medium) or recombinant human PDL-1 (100 ng/mL) and test compounds. Splenocytes were stimulated with anti-mouse CD3 and anti-mouse CD28 antibody (1 μg/mL each), and the culture was further incubated for 72 h at 37° C. with 5% CO2. Cells were harvested and washed thrice with ice cold FACS buffer and % proliferation was analysed by flow cytometry with 488 nm excitation and 521 nm emission filters.
Percent splenocyte proliferation was analysed using cell quest FACS program and percent rescue of splenocyte proliferation by compound was estimated after deduction of % background proliferation value and normalising to % stimulated splenocyte proliferation (positive control) as 100%. • Stimulated splenocytes: Splenocytes+anti-CD3/CD28 stimulation • Background proliferation: Splenocytes+anti-CD3/CD28+PD-L1 • Compound proliferation: Splenocytes+anti-CD3/CD28+PD-L1+Compound • Compound effect is examined by adding required conc. of compound to anti-CD3/CD28 stimulated splenocytes in presence of ligand (PDL-1).

[1] = system: CT26 syngeneic colon adenocarcinoma; assay: Efficacy study in the CT-26 syngeneic (Balb/c male) mouse tumor model; assay type: in vivo; conditions: 14 days, CT26 tumor bearing mice
Experimental: The objective of this study was to evaluate anti-tumor activity of Compound 19 in a CT26 syngeneic colon adenocarcinoma model.
CT26 cell line was procured from ATCC, maintained and stored at ADTL-Bangalore cell line repository. One vial of CT26 cell line was thawed and revived in T-150 cm^2 flask with RPMI medium supplemented with 10% FBS (Gibco), 10 mM 4-(2-hydroxyethyl)-1-piperazineethanesulfonic acid (HEPES), 1 mM sodium pyruvate, 4.5 g/L Glucose, 1% penicillin streptomycin (Sigma) and 1.5 g/L sodium bicarbonate. The flask with CT26 cells at cell density 0.25 million/ml was incubated at 37±1° C. incubator supplied with 5% carbon dioxide. Cell expansion was carried out in T-150 cm^2 flasks and cell density was maintained between 0.25 […], with cell splitting every alternate day. […] Supernatant was discarded and cell pellets were suspended in media and counted using hemocytometer. […]
When the mean tumor volumes reached approximately 30±5 mm^3, the animals were randomized based on tumor volumes into five groups (G1 to G5) of ten animals (N=10) each as mentioned below. The treatment was continued for a period of 14 days after which the overall efficacy and tolerability were evaluated based on tumor volume and body weight changes observed during the treatment period. […]

T1 sequence (Q9EP73 19-238 limits assumed): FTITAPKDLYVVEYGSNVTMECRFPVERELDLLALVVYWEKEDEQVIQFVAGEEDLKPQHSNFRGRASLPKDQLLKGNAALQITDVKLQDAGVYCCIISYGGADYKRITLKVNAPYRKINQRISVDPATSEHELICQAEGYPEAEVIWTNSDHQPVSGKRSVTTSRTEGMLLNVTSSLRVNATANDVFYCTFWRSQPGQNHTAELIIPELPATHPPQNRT

| Structure (SMILES) | Percent rescue of CD8+ T-cell proliferation at 100 nM mPVR based assay (mPVR) | activation at 0.1 µM (PD-L1) | also measured |
| --- | --- | --- | --- |
| N[C@@H](Cc1ccc(O)cc1)c1noc([C@@H]2CCCN2C(=O)N[C@@H](CC(=O)O)C(=O)O)n1 [Compound 1, ((S)-2-(3-((S)-1-amino-2-(4-hydroxyphenyl)ethyl)-1,2,4-oxadiazol-5-yl)pyrrolidine-1-carbonyl)-L-aspartic acid] | 98% | 17% | – |
| CC(O)[C@H](NC(=O)NCc1nc([C@@H](N)CC(=O)O)no1)C(=O)O (stereo partly shown) [Compound 2] | 14% | 84% | – |
| CC(O)[C@H](NC(=O)N[C@@H](Cc1ccc(O)cc1)C(=O)O)c1nc([C@@H](N)Cc2c[nH]cn2)no1 (stereo partly shown) [Compound 3] | 59% | 11% | – |
| N[C@@H](CCC(=O)O)c1noc([C@H](Cc2ccc(O)cc2)NC(=O)N[C@@H](Cc2ccccc2)C(=O)O)n1 [Compound 4] | – | 22% | – |
| CC(C)[C@H](N)c1noc([C@@H](NC(=O)N[C@@H](CCC(N)=O)C(=O)O)C(C)O)n1 (stereo partly shown) [Compound 5] | – | 27% | Percent rescue of CD8+ T-cell proliferation mPVR based assay (mPVR): (17 @ 1000 nM) % |
| CCC(C)[C@H](NC(=O)N[C@@H](CS)c1nc([C@@H](N)Cc2ccccc2)no1)C(=O)O (stereo partly shown) [Compound 6] | – | 15% | – |
| CC(O)[C@H](NC(=O)N[C@@H](Cc1cnc[nH]1)c1nc([C@@H](N)Cc2ccc(O)cc2)no1)C(=O)O (stereo partly shown) [Compound 7] | – | 39% | – |
| CC(O)[C@H](NC(=O)NCc1nc([C@@H](N)CCC(=O)O)no1)C(=O)O (stereo partly shown) [Compound 8] | 14.6% | – | – |
| CC(O)[C@H](N)c1noc([C@@H](NC(=O)N[C@@H](Cc2ccccc2)C(=O)O)C(C)O)n1 (stereo partly shown) [Compound 9] | 56.9% | – | – |
| CC(O)[C@H](N)c1noc([C@@H](N)Cc2ccccc2)n1 (stereo partly shown) [Compound 16] | – | – | Percent rescue of CD8+ T-cell proliferation mPVR based assay (mPVR): 72 (@ 1000 nM) % |
| CC(O)[C@H](N)c1noc([C@H](Cc2ccc(O)cc2)NC(=O)N2CCC[C@H]2C(=O)O)n1 (stereo partly shown) [Compound 19] | 72% | 99% | tumor growth inhibition ([1]; 10 mg/kg qd oral): 42%; tumor growth inhibition ([1]; 30 mg/kg qd oral, statistically significant compared to vehicle): 53% |
| CC(O)[C@H](N)c1noc([C@H](Cc2ccccc2)NC(=O)N2CCC[C@H]2C(=O)O)n1 (stereo partly shown) [Compound 20] | – | 35% | – |
